Reference: patent publication EP0327492A1, “Herbicidally and plantgrowth regulatory active quinoline and pyrindine compounds” (CIBA-GEIGY AG, priority 1988, dated 1989)

How the values were obtained:
Format in all cases: in vivo
Soja [1] = experiment: Pre-emergent herbicidal action (B.2), crop tolerance; details: 500 bis 2000 [g/ha], evaluated after 3 weeks
Description: (§1) Im Gewächshaus wird unmittelbar nach der Einsaat der Versuchspflanzen in Saatschalen die Erdoberfläche mit einer wässrigen Dispersion der Wirkstoffe, erhalten aus einem 25 %igen Emulsionskonzentrat behandelt. Es werden Konzentrationen von 2000-500 g Wirksubstanz/Hektar angewendet. Die Saatschalen werden im Gewächshaus bei 22-25° C und 50-70 % relativer Luftfeuchtigkeit gehalten und der Versuch nach 3 Wochen ausgewertet und die Resultate nach folgender Notenskala ausgewertet. • 1 Pflanze hat nicht gekeimt oder ist eingegangen • 2-3 sehr starke Schäden • 4 starke Schäden • 5 mittlere Schäden, die Pflanzen sind verkümmert • 6 Schäden, die Pflanze kann regenerieren • 7-8 leichte Schäden • 9 normales Wachstum, wie das unbehandelter Pflanzen
(§2) Boniturnoten von 1 bis 4 (insbesondere von 1 bis 3) weisen auf eine gute bis sehr gute Herbizidwirkung hin. Boniturnoten von 6 bis 9 (insbesondere 7 bis 9) weisen auf eine gute Toleranz (insbesondere bei Kulturpflanzen) hin.

Amaranthus ret. [2] = experiment: Post-emergent herbicidal action, contact herbicide (B.3); details: 500 bis 2000 [g/ha], 15 days after treatment
Method in brief: (§3)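 Monocot and dicot weeds are grown to the 4- to 6-leaf stage and then sprayed with the compound as an aqueous dispersion at 2000-500 g/ha. They are kept at 24-26 °C and 45-60% RH for 15 days. Injury is then rated from 1 (plant dead) to 9 (like untreated controls).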

Galium aparine [3] = experiment: as above; details: 500 bis 2000 [g/ha], 15 days after treatment
Method in brief: as §3

Bromus tectorum [4] = experiment: as above; details: 500 bis 2000 [g/ha], 15 days after treatment
Method in brief: as §3

Echinochloa crus galli [5] = experiment: as above; details: 500 bis 2000 [g/ha], 15 days after treatment
Method in brief: as §3

Avena fatua [6] = experiment: as above; details: 500 bis 2000 [g/ha], 15 days after treatment
Method in brief: as §3

Chrysanthe. leuc. [7] = experiment: as above; details: 500 bis 2000 [g/ha], 15 days after treatment
Method in brief: as §3

Solanum nigrum [8] = experiment: as above; details: 500 bis 2000 [g/ha], 15 days after treatment
Method in brief: as §3

Sorghum halep. [9] = experiment: as above; details: 500 bis 2000 [g/ha], 15 days after treatment
Method in brief: as §3

Sinapis [10] = experiment: as above; details: 500 bis 2000 [g/ha], 15 days after treatment
Method in brief: as §3

Xanthium Sp. = experiment: as above; details: 500 bis 2000 [g/ha], 15 days after treatment
Method in brief: as §3

Veronica Sp. [11] = experiment: as above; details: 500 bis 2000 [g/ha], 15 days after treatment
Method in brief: as §3

Alopecurus myos. [12] = experiment: as above; details: 500 bis 2000 [g/ha], 15 days after treatment
Method in brief: as §3

Abutilon [13] = experiment: as above; details: 500 bis 2000 [g/ha], 15 days after treatment
Method in brief: as §3

Stellaria [14] = experiment: as above; details: 500 bis 2000 [g/ha], 15 days after treatment
Method in brief: as §3

Digitaria sang. [15] = experiment: as above; details: 500 bis 2000 [g/ha], 15 days after treatment
Method in brief: as §3

Lolium perenne [16] = experiment: as above; details: 500 bis 2000 [g/ha], 15 days after treatment
Method in brief: as §3

Chenopodium Sp. [17] = experiment: as above; details: 500 bis 2000 [g/ha], 15 days after treatment
Method in brief: as §3

Amaranthus ret. [18] = experiment: Pre-emergent herbicidal action (B.2); details: 500 bis 2000 [g/ha], evaluated after 3 weeks
Method in brief: (§4)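 Immediately after sowing in greenhouse, soil surface sprayed with aqueous dispersion of an emulsion concentrate at 2000-500 g active ingredient/ha. Plants kept at 22-25 °C, 50-70% relative humidity; damage rated after 3 weeks on a 1 (dead/not germinated) to 9 (normal growth) scale.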

Galium aparine [19] = experiment: Pre-emergent herbicidal action (B.2); details: 500 bis 2000 [g/ha], evaluated after 3 weeks
Method in brief: as §4

Bromus tectorum [20] = experiment: Pre-emergent herbicidal action (B.2); details: 500 bis 2000 [g/ha], evaluated after 3 weeks
Method in brief: as §4

Echinochloa crus galli [21] = experiment: Pre-emergent herbicidal action (B.2); details: 500 bis 2000 [g/ha], evaluated after 3 weeks
Method in brief: as §4

Avena fatua [22] = experiment: Pre-emergent herbicidal action (B.2); details: 500 bis 2000 [g/ha], evaluated after 3 weeks
Method in brief: as §4

Chrysanthe. leuc. [23] = experiment: Pre-emergent herbicidal action (B.2); details: 500 bis 2000 [g/ha], evaluated after 3 weeks
Method in brief: as §4

Solanum nigrum [24] = experiment: Pre-emergent herbicidal action (B.2); details: 500 bis 2000 [g/ha], evaluated after 3 weeks
Method in brief: as §4

Sorghum halep. [25] = experiment: Pre-emergent herbicidal action (B.2); details: 500 bis 2000 [g/ha], evaluated after 3 weeks
Method in brief: as §4

Sinapis [26] = experiment: Pre-emergent herbicidal action (B.2); details: 500 bis 2000 [g/ha], evaluated after 3 weeks
Method in brief: as §4

Ipomoea = experiment: Pre-emergent herbicidal action (B.2); details: 500 bis 2000 [g/ha], evaluated after 3 weeks
Method in brief: as §4

Veronica Sp. [27] = experiment: Pre-emergent herbicidal action (B.2); details: 500 bis 2000 [g/ha], evaluated after 3 weeks
Method in brief: as §4

Alopecurus myos. [28] = experiment: Pre-emergent herbicidal action (B.2); details: 500 bis 2000 [g/ha], evaluated after 3 weeks
Method in brief: as §4

Abutilon [29] = experiment: Pre-emergent herbicidal action (B.2); details: 500 bis 2000 [g/ha], evaluated after 3 weeks
Method in brief: as §4

Stellaria [30] = experiment: Pre-emergent herbicidal action (B.2); details: 500 bis 2000 [g/ha], evaluated after 3 weeks
Method in brief: as §4

Digitaria sang. [31] = experiment: Pre-emergent herbicidal action (B.2); details: 500 bis 2000 [g/ha], evaluated after 3 weeks
Method in brief: as §4

Lolium perenne [32] = experiment: Pre-emergent herbicidal action (B.2); details: 500 bis 2000 [g/ha], evaluated after 3 weeks
Method in brief: as §4

Chenopodium Sp. [33] = experiment: Pre-emergent herbicidal action (B.2); details: 500 bis 2000 [g/ha], evaluated after 3 weeks
Method in brief: as §4

Soja [34] = experiment: Post-emergent herbicidal action (B.3), crop tolerance; details: 500 bis 2000 [g/ha], 15 days after treatment
Description: as §1, §2
(§5) Eine Anzahl Unkräuter, sowohl monokotyle wie dikotyle, werden nach dem Auflaufen (im 4- bis 6-Blattstadium) mit einer wässrigen Wirkstoffdispersion in einer Dosierung von 2000-500 g Wirksubstanz pro Hektar auf die Pflanzen gespritzt und diese bei 24°-26°C und 45-60 % relativer Luftfeuchtigkeit gehalten. 15 Tage nach der Behandlung wird der Versuch nach dem in Beispiel B.2. gegebenen Massstab bewertet.

Baumwolle = experiment: as above; details: 500 bis 2000 [g/ha], 15 days after treatment
Description: as §1, §2, §5

## CC1CCCc2nc(C3=NC(=O)C(C)(C(C)C)N3)c(C(=O)O)cc21 (stereo not shown) [Verbindung 2.02, 2-(5-Isopropyl-5-methyl-1 H-imidazol-4-on-2-yl)-5-methyl-5,6,7,8-tetrahydrochinolin-3-carbonsäure]
Soja [1]
  Toleranz (im Wachstum beeinflusst): gute Toleranz (Boniturnoten von 6 bis 9 (insbesondere 7 bis 9) weisen auf eine gute Toleranz (insbesondere bei Kulturpflanzen) hin)
Amaranthus ret. [2]
  Herbizidwirkung: gute bis sehr gute Herbizidwirkung (Boniturnoten von 1 bis 4 (insbesondere von 1 bis 3) weisen auf eine gute bis sehr gute Herbizidwirkung hin)
Galium aparine [3]
  Herbizidwirkung: gute bis sehr gute Herbizidwirkung (Boniturnoten von 1 bis 4 (insbesondere von 1 bis 3) weisen auf eine gute bis sehr gute Herbizidwirkung hin)
Bromus tectorum [4]
  Herbizidwirkung: gute bis sehr gute Herbizidwirkung (Boniturnoten von 1 bis 4 (insbesondere von 1 bis 3) weisen auf eine gute bis sehr gute Herbizidwirkung hin)
Echinochloa crus galli [5]
  Herbizidwirkung: gute bis sehr gute Herbizidwirkung (Boniturnoten von 1 bis 4 (insbesondere von 1 bis 3) weisen auf eine gute bis sehr gute Herbizidwirkung hin)
Avena fatua [6]
  Herbizidwirkung: gute bis sehr gute Herbizidwirkung (Boniturnoten von 1 bis 4 (insbesondere von 1 bis 3) weisen auf eine gute bis sehr gute Herbizidwirkung hin)
Chrysanthe. leuc. [7]
  Herbizidwirkung: gute bis sehr gute Herbizidwirkung (Boniturnoten von 1 bis 4 (insbesondere von 1 bis 3) weisen auf eine gute bis sehr gute Herbizidwirkung hin)
Solanum nigrum [8]
  Herbizidwirkung: gute bis sehr gute Herbizidwirkung (Boniturnoten von 1 bis 4 (insbesondere von 1 bis 3) weisen auf eine gute bis sehr gute Herbizidwirkung hin)
Sorghum halep. [9]
  Herbizidwirkung: gute bis sehr gute Herbizidwirkung (Boniturnoten von 1 bis 4 (insbesondere von 1 bis 3) weisen auf eine gute bis sehr gute Herbizidwirkung hin)
Sinapis [10]
  Herbizidwirkung: gute bis sehr gute Herbizidwirkung (Boniturnoten von 1 bis 4 (insbesondere von 1 bis 3) weisen auf eine gute bis sehr gute Herbizidwirkung hin)
Xanthium Sp.
  Herbizidwirkung: gute bis sehr gute Herbizidwirkung (Boniturnoten von 1 bis 4 (insbesondere von 1 bis 3) weisen auf eine gute bis sehr gute Herbizidwirkung hin)
Veronica Sp. [11]
  Herbizidwirkung: gute bis sehr gute Herbizidwirkung (Boniturnoten von 1 bis 4 (insbesondere von 1 bis 3) weisen auf eine gute bis sehr gute Herbizidwirkung hin)
Alopecurus myos. [12]
  Herbizidwirkung: gute bis sehr gute Herbizidwirkung (Boniturnoten von 1 bis 4 (insbesondere von 1 bis 3) weisen auf eine gute bis sehr gute Herbizidwirkung hin)
Abutilon [13]
  Herbizidwirkung: gute bis sehr gute Herbizidwirkung (Boniturnoten von 1 bis 4 (insbesondere von 1 bis 3) weisen auf eine gute bis sehr gute Herbizidwirkung hin)
Stellaria [14]
  Herbizidwirkung: gute bis sehr gute Herbizidwirkung (Boniturnoten von 1 bis 4 (insbesondere von 1 bis 3) weisen auf eine gute bis sehr gute Herbizidwirkung hin)
Digitaria sang. [15]
  Herbizidwirkung: gute bis sehr gute Herbizidwirkung (Boniturnoten von 1 bis 4 (insbesondere von 1 bis 3) weisen auf eine gute bis sehr gute Herbizidwirkung hin)
Lolium perenne [16]
  Herbizidwirkung: gute bis sehr gute Herbizidwirkung (Boniturnoten von 1 bis 4 (insbesondere von 1 bis 3) weisen auf eine gute bis sehr gute Herbizidwirkung hin)
Chenopodium Sp. [17]
  Herbizidwirkung: gute bis sehr gute Herbizidwirkung (Boniturnoten von 1 bis 4 (insbesondere von 1 bis 3) weisen auf eine gute bis sehr gute Herbizidwirkung hin)
Amaranthus ret. [18]
  Herbizidwirkung: gute bis sehr gute Herbizidwirkung (Boniturnoten von 1 bis 4 (insbesondere von 1 bis 3) weisen auf eine gute bis sehr gute Herbizidwirkung hin)
Galium aparine [19]
  Herbizidwirkung: gute bis sehr gute Herbizidwirkung (Boniturnoten von 1 bis 4 (insbesondere von 1 bis 3) weisen auf eine gute bis sehr gute Herbizidwirkung hin)
Bromus tectorum [20]
  Herbizidwirkung: gute bis sehr gute Herbizidwirkung (Boniturnoten von 1 bis 4 (insbesondere von 1 bis 3) weisen auf eine gute bis sehr gute Herbizidwirkung hin)
Echinochloa crus galli [21]
  Herbizidwirkung: gute bis sehr gute Herbizidwirkung (Boniturnoten von 1 bis 4 (insbesondere von 1 bis 3) weisen auf eine gute bis sehr gute Herbizidwirkung hin)
Avena fatua [22]
  Herbizidwirkung: gute bis sehr gute Herbizidwirkung (Boniturnoten von 1 bis 4 (insbesondere von 1 bis 3) weisen auf eine gute bis sehr gute Herbizidwirkung hin)
Chrysanthe. leuc. [23]
  Herbizidwirkung: gute bis sehr gute Herbizidwirkung (Boniturnoten von 1 bis 4 (insbesondere von 1 bis 3) weisen auf eine gute bis sehr gute Herbizidwirkung hin)
Solanum nigrum [24]
  Herbizidwirkung: gute bis sehr gute Herbizidwirkung (Boniturnoten von 1 bis 4 (insbesondere von 1 bis 3) weisen auf eine gute bis sehr gute Herbizidwirkung hin)
Sorghum halep. [25]
  Herbizidwirkung: gute bis sehr gute Herbizidwirkung (Boniturnoten von 1 bis 4 (insbesondere von 1 bis 3) weisen auf eine gute bis sehr gute Herbizidwirkung hin)
Sinapis [26]
  Herbizidwirkung: gute bis sehr gute Herbizidwirkung (Boniturnoten von 1 bis 4 (insbesondere von 1 bis 3) weisen auf eine gute bis sehr gute Herbizidwirkung hin)
Ipomoea
  Herbizidwirkung: gute bis sehr gute Herbizidwirkung (Boniturnoten von 1 bis 4 (insbesondere von 1 bis 3) weisen auf eine gute bis sehr gute Herbizidwirkung hin)
Veronica Sp. [27]
  Herbizidwirkung: gute bis sehr gute Herbizidwirkung (Boniturnoten von 1 bis 4 (insbesondere von 1 bis 3) weisen auf eine gute bis sehr gute Herbizidwirkung hin)
Alopecurus myos. [28]
  Herbizidwirkung: gute bis sehr gute Herbizidwirkung (Boniturnoten von 1 bis 4 (insbesondere von 1 bis 3) weisen auf eine gute bis sehr gute Herbizidwirkung hin)
Abutilon [29]
  Herbizidwirkung: gute bis sehr gute Herbizidwirkung (Boniturnoten von 1 bis 4 (insbesondere von 1 bis 3) weisen auf eine gute bis sehr gute Herbizidwirkung hin)
Stellaria [30]
  Herbizidwirkung: gute bis sehr gute Herbizidwirkung (Boniturnoten von 1 bis 4 (insbesondere von 1 bis 3) weisen auf eine gute bis sehr gute Herbizidwirkung hin)
Digitaria sang. [31]
  Herbizidwirkung: gute bis sehr gute Herbizidwirkung (Boniturnoten von 1 bis 4 (insbesondere von 1 bis 3) weisen auf eine gute bis sehr gute Herbizidwirkung hin)
Lolium perenne [32]
  Herbizidwirkung: gute bis sehr gute Herbizidwirkung (Boniturnoten von 1 bis 4 (insbesondere von 1 bis 3) weisen auf eine gute bis sehr gute Herbizidwirkung hin)
Chenopodium Sp. [33]
  Herbizidwirkung: gute bis sehr gute Herbizidwirkung (Boniturnoten von 1 bis 4 (insbesondere von 1 bis 3) weisen auf eine gute bis sehr gute Herbizidwirkung hin)
Soja [34]
  Toleranz (im Wachstum beeinflusst): gute Toleranz (Boniturnoten von 6 bis 9 (insbesondere 7 bis 9) weisen auf eine gute Toleranz (insbesondere bei Kulturpflanzen) hin)
Baumwolle
  Toleranz (im Wachstum beeinflusst): gute Toleranz (Boniturnoten von 6 bis 9 (insbesondere 7 bis 9) weisen auf eine gute Toleranz (insbesondere bei Kulturpflanzen) hin)
